Laboratory results: ChEMBL document CHEMBL4321876 (J Med Chem, 2020)
Calls of active or inactive are those of the source. No cut-off for these calls is given here.

Assays:
[1] = Clearance in Sprague-Dawley rat at 1 mg/kg, iv by LC-MS/MS analysis; assay type: ADME, organism-based; conditions: in vivo
[2] = Intrinsic clearance in human liver microsomes assessed per mg protein at 0.1 uM preincubated for 10 mins followed by NADPH addition and measured up to 60 mins by UPLC-MS/MS analysis; assay type: ADME, Microsome; conditions: read-out: CLH
Kasumi 1 = experiment: Antiproliferative activity against human Kasumi-1 cells measured after 3 days by celltiter-glo luminescence assay; assay type: functional, cell-based; conditions: Kasumi 1, 72 h
[3] = AUClast in Sprague-Dawley rat at 1 mg/kg, iv by LC-MS/MS analysis; assay type: ADME, organism-based; design: dose 1 mg/kg, route intravenous, time 0 - last; conditions: in vivo
MV4-11 [4] = experiment: Antiproliferative activity against human MV4-11 cells measured after 3 days by celltiter-glo luminescence assay; assay type: functional, cell-based; conditions: MV4-11, 72 h
K562 = experiment: Antiproliferative activity against human K562 cells measured after 3 days by celltiter-glo luminescence assay; assay type: functional, cell-based; conditions: K562, 72 h
[5] = Cmax in Sprague-Dawley rat at 3 mg/kg, po by LC-MS/MS analysis; assay type: ADME, organism-based; design: dose 3 mg/kg, route oral; conditions: in vivo
[6] = molecular target: T1, Histone acetyltransferase p300 (Homo sapiens, UniProt Q09472); experiment: Inhibition of p300 in human MV4-11 cells assessed as decrease in H3K27 acetylation measured after 6 hrs by Western blot analysis; assay type: cell-based
T1 sequence (Q09472 whole entry): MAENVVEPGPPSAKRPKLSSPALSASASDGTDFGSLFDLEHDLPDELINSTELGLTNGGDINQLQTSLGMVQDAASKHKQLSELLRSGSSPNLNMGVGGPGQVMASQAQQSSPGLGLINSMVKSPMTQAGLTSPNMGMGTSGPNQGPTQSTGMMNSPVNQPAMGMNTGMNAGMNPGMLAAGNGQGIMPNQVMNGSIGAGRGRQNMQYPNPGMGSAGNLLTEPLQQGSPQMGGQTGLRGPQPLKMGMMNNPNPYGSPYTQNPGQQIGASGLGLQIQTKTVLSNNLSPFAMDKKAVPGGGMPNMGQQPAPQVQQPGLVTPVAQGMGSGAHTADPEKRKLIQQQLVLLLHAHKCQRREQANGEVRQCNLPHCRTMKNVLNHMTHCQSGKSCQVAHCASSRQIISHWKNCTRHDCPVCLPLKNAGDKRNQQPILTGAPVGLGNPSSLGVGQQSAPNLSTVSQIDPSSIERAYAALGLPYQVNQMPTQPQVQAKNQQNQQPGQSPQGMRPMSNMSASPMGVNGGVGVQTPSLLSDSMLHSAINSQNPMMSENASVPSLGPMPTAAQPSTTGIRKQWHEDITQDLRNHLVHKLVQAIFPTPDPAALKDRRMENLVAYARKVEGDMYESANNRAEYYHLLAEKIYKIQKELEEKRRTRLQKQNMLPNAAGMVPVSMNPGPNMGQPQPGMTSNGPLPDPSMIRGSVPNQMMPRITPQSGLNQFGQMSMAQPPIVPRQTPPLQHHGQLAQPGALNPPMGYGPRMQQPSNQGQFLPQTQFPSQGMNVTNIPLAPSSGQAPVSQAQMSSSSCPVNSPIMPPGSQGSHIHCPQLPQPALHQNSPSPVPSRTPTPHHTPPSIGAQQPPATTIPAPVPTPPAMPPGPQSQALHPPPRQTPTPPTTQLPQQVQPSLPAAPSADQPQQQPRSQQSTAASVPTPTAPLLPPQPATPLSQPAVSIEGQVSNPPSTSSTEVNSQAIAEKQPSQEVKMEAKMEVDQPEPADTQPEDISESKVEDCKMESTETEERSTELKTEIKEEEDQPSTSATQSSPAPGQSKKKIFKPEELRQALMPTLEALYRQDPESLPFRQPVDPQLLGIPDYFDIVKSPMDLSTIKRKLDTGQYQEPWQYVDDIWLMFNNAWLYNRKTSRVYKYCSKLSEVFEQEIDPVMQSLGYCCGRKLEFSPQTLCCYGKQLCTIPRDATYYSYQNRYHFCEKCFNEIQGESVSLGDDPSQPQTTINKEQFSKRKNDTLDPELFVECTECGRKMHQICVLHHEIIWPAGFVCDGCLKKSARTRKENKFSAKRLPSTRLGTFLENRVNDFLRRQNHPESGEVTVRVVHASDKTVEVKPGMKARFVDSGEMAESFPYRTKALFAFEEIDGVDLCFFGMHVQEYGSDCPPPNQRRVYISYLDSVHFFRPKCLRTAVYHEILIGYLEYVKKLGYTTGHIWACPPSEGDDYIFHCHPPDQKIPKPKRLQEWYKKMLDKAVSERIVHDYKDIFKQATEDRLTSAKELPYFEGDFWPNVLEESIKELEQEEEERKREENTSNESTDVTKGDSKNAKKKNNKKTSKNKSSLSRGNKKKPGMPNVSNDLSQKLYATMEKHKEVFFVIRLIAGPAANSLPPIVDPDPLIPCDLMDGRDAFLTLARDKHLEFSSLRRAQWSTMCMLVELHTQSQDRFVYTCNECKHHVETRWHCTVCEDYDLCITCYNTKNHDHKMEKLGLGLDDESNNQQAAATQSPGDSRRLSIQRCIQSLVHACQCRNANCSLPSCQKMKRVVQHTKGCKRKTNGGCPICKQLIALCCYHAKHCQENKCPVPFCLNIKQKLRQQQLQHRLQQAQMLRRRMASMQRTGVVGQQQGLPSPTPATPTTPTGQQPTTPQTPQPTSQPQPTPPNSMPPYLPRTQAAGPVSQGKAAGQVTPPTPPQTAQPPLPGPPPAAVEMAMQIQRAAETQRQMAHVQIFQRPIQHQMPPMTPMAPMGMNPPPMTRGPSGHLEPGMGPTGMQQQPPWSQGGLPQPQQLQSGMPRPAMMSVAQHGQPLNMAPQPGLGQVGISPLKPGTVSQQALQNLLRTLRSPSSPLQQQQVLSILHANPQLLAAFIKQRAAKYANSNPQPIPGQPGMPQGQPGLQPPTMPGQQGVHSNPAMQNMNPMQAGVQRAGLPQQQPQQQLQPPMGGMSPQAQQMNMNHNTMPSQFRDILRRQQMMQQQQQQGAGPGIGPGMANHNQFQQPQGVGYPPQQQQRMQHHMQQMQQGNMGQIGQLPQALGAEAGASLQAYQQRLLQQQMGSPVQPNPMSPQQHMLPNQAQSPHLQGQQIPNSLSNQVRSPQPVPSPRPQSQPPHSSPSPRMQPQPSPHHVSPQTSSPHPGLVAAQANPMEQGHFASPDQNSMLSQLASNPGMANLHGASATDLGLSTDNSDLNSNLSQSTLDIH

[7] = Protein binding in rat plasma; assay type: ADME, cell-free; conditions: read-out: PPB (converted)
[8] = Toxicity in human MV4-11 cells xenografted Balb/c mouse assessed as body weight loss at 50 to 100 mg/kg, po administered for 28 days measured twice daily during compound dosing; assay type: organism-based; conditions: in vivo, 672 h
[9] = molecular target: T1, Histone acetyltransferase p300; experiment: Inhibition of p300 (unknown origin) using histone H3 (1 to 21 residues) as substrate preincubated for 15 mins followed by substrate and [3H]acetyl-CoA addition and measured after 60 mins by scintillation counting analysis
[10] = Half life in Sprague-Dawley rat at 1 mg/kg, iv by LC-MS/MS analysis; assay type: ADME, organism-based; conditions: in vivo
[11] = AUClast in Sprague-Dawley rat at 3 mg/kg, po by LC-MS/MS analysis; assay type: ADME, organism-based; design: dose 3 mg/kg, time 0 - last, route oral; conditions: in vivo
[12] = Volume of distribution at steady state in Sprague-Dawley rat at 1 mg/kg, iv by LC-MS/MS analysis; assay type: ADME, organism-based; conditions: in vivo, read-out: Vdss
[13] = Tmax in Sprague-Dawley rat at 3 mg/kg, po by LC-MS/MS analysis; assay type: ADME, organism-based; conditions: in vivo
[14] = Intrinsic clearance in rat liver microsomes assessed per mg protein at 0.1 uM preincubated for 10 mins followed by NADPH addition and measured up to 60 mins by UPLC-MS/MS analysis; assay type: ADME, Microsome; conditions: read-out: CLH
CWR22R = experiment: Antiproliferative activity against human 22Rv1 cells measured after 3 days by celltiter-glo luminescence assay; assay type: functional, cell-based; conditions: 22Rv1, 72 h
[15] = Half life in Sprague-Dawley rat at 3 mg/kg, po by LC-MS/MS analysis; assay type: ADME, organism-based; conditions: in vivo
[16] = Toxicity in human MV4-11 cells xenografted Balb/c mouse assessed as adverse effect at 50 to 100 mg/kg, po administered for 28 days; assay type: organism-based; conditions: in vivo, 672 h
MV4-11 [17] = experiment: Antitumor activity against human MV4-11 cells xenografted in Balb/c mouse assessed as tumor growth inhibition at 100 mg/kg, po administered for 28 days measured twice daily during compound dosing relative to control; assay type: functional; conditions: MV4-11, po, 672 h, read-out: TGI
[18] = molecular target: Voltage-gated inwardly rectifying potassium channel KCNH2 (Homo sapiens, UniProt Q12809); experiment: Inhibition of human ERG
Chain of Voltage-gated inwardly rectifying potassium channel KCNH2 (Q12809 whole entry): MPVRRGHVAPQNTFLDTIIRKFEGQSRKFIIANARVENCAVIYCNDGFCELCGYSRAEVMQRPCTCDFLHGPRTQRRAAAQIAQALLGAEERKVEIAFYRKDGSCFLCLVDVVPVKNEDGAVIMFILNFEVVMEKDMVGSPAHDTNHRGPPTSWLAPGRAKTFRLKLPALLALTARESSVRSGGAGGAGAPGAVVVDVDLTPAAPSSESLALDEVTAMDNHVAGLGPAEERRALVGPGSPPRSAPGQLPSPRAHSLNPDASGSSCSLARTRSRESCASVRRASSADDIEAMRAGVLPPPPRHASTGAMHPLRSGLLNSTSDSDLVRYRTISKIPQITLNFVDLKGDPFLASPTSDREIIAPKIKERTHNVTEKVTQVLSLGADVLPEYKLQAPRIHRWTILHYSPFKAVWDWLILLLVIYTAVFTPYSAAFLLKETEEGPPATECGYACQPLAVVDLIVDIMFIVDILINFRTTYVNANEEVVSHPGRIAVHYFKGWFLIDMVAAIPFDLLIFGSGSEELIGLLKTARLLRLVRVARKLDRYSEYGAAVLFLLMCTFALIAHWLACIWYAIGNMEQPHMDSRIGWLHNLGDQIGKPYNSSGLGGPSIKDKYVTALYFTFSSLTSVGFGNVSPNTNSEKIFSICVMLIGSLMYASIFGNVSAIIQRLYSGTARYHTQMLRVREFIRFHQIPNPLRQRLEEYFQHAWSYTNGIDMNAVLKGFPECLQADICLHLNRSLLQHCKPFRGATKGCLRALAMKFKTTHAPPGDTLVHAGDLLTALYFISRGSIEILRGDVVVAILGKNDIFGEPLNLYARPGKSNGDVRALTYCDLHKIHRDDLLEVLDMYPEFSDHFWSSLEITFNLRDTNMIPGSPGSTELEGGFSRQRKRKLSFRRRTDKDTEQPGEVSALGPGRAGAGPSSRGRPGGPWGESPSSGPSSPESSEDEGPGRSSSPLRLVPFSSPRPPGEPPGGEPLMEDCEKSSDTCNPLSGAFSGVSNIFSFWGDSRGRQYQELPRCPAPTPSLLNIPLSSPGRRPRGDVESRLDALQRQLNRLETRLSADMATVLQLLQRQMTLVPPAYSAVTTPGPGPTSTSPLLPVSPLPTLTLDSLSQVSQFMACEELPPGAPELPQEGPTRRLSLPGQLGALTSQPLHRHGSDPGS

HT = experiment: Antiproliferative activity against human HT cells measured after 3 days by celltiter-glo luminescence assay; assay type: functional, cell-based; conditions: 72 h
[19] = molecular target: T1, Histone acetyltransferase p300; experiment: Inhibition of p300 in human MV4-11 cells assessed as decrease in MYC mRNA level at 0.2 to 1 uM measured after 24 hrs by SYBR dye-based qRT-PCR analysis; assay type: cell-based
[20] = molecular target: T1, Histone acetyltransferase p300; experiment: Binding affinity to p300 in human MV4-11 cells assessed as stabilization of protein measured after 12 hrs by CETSA; assay type: cell-based
[21] = Oral bioavailability in Sprague-Dawley rat at 3 mg/kg by LC-MS/MS analysis; assay type: ADME, organism-based; conditions: in vivo
MV4-11 [22] = experiment: Antitumor activity against human MV4-11 cells xenografted in Balb/c mouse assessed as tumor growth inhibition at 50 mg/kg, po administered for 28 days measured twice daily during compound dosing relative to control; assay type: functional; conditions: MV4-11, po, 672 h, read-out: TGI
Maver1 = experiment: Antiproliferative activity against human Maver1 cells measured after 3 days by celltiter-glo luminescence assay; assay type: functional, cell-based; conditions: Maver1, 72 h
LNCaP-Clone-FGC = experiment: Antiproliferative activity against human LNCaP-FGC cells measured after 5 days by celltiter-glo luminescence assay; assay type: functional, cell-based; conditions: 120 h
[23] = Intrinsic clearance in mouse liver microsomes assessed per mg protein at 0.1 uM preincubated for 10 mins followed by NADPH addition and measured up to 60 mins by UPLC-MS/MS analysis; assay type: ADME, Microsome; conditions: read-out: CLH

clearance [1]: 13.4 mL/min/kg
microsomal CLint at 0.1 µM [2]: 18.2 µL/min/mg
AUC(0-t) [3]: 2.22 µM·h
IC50 (MV4-11 [4]): 4.2 nM
IC50 (K562): 104 nM
Cmax [5]: 1120 nM
inhibition [6]: Dose-dependent effect
fraction unbound [7]: 0.018
IC50 [9]: 1.8 nM
half-life [10]: 1.5 h
AUC(0-t) [11]: 3.71 µM·h
Vd [12]: 1.5 L/kg
Tmax [13]: 0.83 h
microsomal CLint at 0.1 µM [14]: 32.7 µL/min/mg
half-life [15]: 1.02 h
inhibition [19]: Active
Activity [20]: Dose-dependent effect
bioavailability [21]: 56%
IC50 (LNCaP-Clone-FGC): 9.8 nM
microsomal CLint at 0.1 µM [23]: 36.8 µL/min/mg
SMILES: Cn1cc(-c2ccc3c(c2)CC[C@]32NC(=O)N(CC(=O)N3Cc4cc(F)ccc4OC[C@H]3C(F)(F)F)C2=O)cn1
IC50 (Kasumi 1): 40.5 nM
Activity [8]: Non-Toxic
IC50 (CWR22R): 4.4 nM
Activity [16]: Non-Toxic
inhibition in vivo at 100 mg/kg (MV4-11 [17]): 85.7%
IC50 [18]: > 40000 nM
IC50 (HT): > 10000 nM
inhibition in vivo at 50 mg/kg (MV4-11 [22]): 75%
IC50 (Maver1): 2.6 nM
